According to patent publication US20220144817A1 (Karuna Therapeutics, Inc., priority 2019, published 2022):
Where a name gives a salt, the structure may show the parent alone.

Experiments:
[1] = Pharmacokinetics following single oral dose administration in male Sprague-Dawley rats; type: in vivo; details: single oral dose of the tartrate salt, 25 mg/kg, plasma, normalized to actual dosing concentration
Method: Blood samples were collected from all animals in Groups 1-3 at 0.25, 0.5, 1, 2, 4, 6, 8, 12 and 24 hours post dose, with each animal bled at all time points. […] The slopes of the elimination phase of the concentrations vs. time curve used to calculate the T1/2 were determined by log-linear regression.
PK analyses were performed and validated using Phoenix® WinNonlin® version 8.0.
Estimated elimination half-life (tr) was also similar among treatment groups (ranged between 1.5 and 2.7 hours post-dose).

[2] = biological target: T1, muscarinic acetylcholine receptor human M2 (hM2) (Homo sapiens, UniProt P08172); assay: pERK dose response in CHO cells stably expressing hM2; type: cell-based; details: rank hM3>hM5>hM2
T1 construct: expressed in transfected cells
T1 sequence (P08172 1-466): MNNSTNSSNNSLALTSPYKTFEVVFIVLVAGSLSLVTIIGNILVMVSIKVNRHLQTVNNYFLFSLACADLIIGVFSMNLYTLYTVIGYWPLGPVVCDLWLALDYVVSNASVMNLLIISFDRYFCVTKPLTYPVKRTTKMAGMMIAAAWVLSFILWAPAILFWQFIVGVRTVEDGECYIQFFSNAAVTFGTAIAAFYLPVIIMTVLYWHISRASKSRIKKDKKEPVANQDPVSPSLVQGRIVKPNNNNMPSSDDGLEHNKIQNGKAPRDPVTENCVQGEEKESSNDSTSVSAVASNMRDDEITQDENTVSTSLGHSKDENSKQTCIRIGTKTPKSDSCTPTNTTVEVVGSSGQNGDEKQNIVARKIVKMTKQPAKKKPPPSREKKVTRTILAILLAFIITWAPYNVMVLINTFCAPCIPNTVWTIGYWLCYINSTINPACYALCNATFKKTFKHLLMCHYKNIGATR

[3] = biological target: T2, muscarinic acetylcholine receptor human M5 (hM5) (Homo sapiens, UniProt P08912); assay: pERK dose response in CHO cells stably expressing hM5; type: cell-based; details: rank hM3>hM5>hM2
T2 construct: expressed in transfected cells
T2 sequence (P08912 1-532): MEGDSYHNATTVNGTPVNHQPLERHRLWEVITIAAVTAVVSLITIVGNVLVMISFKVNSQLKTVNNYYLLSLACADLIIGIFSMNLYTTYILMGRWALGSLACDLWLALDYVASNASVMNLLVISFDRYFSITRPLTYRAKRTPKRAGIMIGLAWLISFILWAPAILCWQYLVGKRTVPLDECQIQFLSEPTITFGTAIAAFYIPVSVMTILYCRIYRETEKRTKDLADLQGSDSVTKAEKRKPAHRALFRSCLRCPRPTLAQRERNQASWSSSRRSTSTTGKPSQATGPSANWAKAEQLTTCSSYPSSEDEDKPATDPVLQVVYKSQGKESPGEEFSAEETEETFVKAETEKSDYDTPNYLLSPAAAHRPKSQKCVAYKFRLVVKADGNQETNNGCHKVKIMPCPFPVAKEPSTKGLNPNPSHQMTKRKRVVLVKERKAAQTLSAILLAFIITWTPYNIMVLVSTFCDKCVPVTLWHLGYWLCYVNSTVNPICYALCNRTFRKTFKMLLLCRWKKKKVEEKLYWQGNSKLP
Description: (§1) The Flp-In™ cell lines are designed for rapid generation of stable cell lines that express a protein of interest from a Flp-In™ expression vector.
(§2) Extracellular signal-related kinase (ERK1/2 or p42/44) is a kinase in the mitogen-activated protein kinase (MAPK) family. Phosphorylation of ERK (pERK) can be used as a common end point measurement for the activation of many classes of G protein coupled receptors (GPCR) and beta-arrestin linked signaling.
(§3) For the pERK assay, cells were serum starved for 5 to 6 hours. Curves were normalized to the maximum response from the fetal bovine serum (FBS) medium corresponding to a 5-minute stimulation. A 5-minute incubation with the agonists was selected for the dose response pERK assays (n=2).
(§4) Nonlinear regression curves were calculated per the three parameters method with no constraints.

[4] = biological target: T3, muscarinic acetylcholine receptor human M3 (hM3) (Homo sapiens, UniProt P20309); assay: pERK dose response in CHO cells stably expressing hM3; type: cell-based; details: for EC50: CHO cells expressing hM3, 5-minute incubation, normalized to maximum FBS response, n=3, read-out: pEC50 (pERK), M3 (converted); for agonist capacity at hM3: pERK, rank hM3>hM5>hM2
T3 construct: expressed in transfected cells
T3 sequence (P20309 whole entry): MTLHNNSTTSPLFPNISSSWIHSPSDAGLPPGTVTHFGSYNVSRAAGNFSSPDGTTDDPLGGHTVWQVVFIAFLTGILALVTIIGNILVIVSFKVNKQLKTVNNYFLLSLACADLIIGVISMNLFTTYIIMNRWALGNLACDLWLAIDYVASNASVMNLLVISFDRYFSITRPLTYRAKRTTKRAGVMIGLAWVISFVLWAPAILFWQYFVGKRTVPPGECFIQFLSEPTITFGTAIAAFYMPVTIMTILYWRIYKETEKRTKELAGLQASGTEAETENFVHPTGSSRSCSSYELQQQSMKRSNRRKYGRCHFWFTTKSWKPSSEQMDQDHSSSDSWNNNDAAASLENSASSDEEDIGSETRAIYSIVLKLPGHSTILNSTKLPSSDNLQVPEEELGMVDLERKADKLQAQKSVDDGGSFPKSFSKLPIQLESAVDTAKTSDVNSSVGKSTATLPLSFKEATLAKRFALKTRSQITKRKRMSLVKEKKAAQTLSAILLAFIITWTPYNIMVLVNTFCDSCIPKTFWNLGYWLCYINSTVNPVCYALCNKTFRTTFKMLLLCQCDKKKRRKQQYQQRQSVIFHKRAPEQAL

[5] = biological target: T4, muscarinic acetylcholine receptor human M4 (hM4) (Homo sapiens, UniProt P08173); details: pERK; rank hM4>hM1
T4 sequence (P08173 1-479): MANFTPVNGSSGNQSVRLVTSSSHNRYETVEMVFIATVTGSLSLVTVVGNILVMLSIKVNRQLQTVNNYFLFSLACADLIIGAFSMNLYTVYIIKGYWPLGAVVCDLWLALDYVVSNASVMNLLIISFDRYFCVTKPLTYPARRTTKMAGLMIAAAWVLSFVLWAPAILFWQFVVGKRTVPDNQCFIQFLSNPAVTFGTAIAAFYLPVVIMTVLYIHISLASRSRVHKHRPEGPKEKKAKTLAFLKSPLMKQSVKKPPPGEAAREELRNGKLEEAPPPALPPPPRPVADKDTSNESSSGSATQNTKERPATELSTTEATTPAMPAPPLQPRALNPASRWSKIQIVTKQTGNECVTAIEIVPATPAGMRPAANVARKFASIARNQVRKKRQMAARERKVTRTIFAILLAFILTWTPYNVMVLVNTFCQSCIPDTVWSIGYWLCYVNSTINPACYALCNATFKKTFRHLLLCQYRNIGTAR
Description: as §1, §2, §3, §4

Row | Compound | normalized AUC [1] [pg·h/mg] | agonist capacity at hM2 [2] | agonist capacity at hM5 [3] | EC50 [4] [nM] | agonist capacity at hM3 [4] | agonist capacity at hM4 [5]
1 | CCCCCCOc1nsnc1C1=CCCN(C)C1 [Xanomeline tartrate, 3-(hexyloxy)-4-(1-methyl-1,2,5,6-tetrahydropyridin-3-yl)-1,2,5-thiadiazole, reference compound] | 4210 | – | – | – | – | –
2 | [2H]C([2H])([2H])C([2H])([2H])C([2H])([2H])C([2H])([2H])C([2H])([2H])C([2H])([2H])Oc1nsnc1C1=CCCN(C)C1 [Xanomeline-d13, 3-((hexyl-1,1,2,2,3,3,4,4,5,5,6,6,6-d13)oxy)-4-(1-methyl-1,2,5,6-tetrahydropyridin-3-yl)-1,2,5-thiadiazole] | 8070 | modestly potent partial agonists | modestly potent partial agonists | 9.66 | modestly potent partial agonists | efficacious partial agonist
3 | [2H]C([2H])([2H])N1CCC=C(c2nsnc2OC([2H])([2H])C([2H])([2H])C([2H])([2H])C([2H])([2H])C([2H])([2H])C([2H])([2H])[2H])C1 [Xanomeline-d16, 3-((hexyl-1,1,2,2,3,3,4,4,5,5,6,6,6-d13)oxy)-4-(1-(methyl-d3)-1,2,5,6-tetrahydropyridin-3-yl)-1,2,5-thiadiazole] | 6780 | modestly potent partial agonists | modestly potent partial agonists | 27.2 | modestly potent partial agonists | efficacious partial agonist
